Assay results from ChEMBL document CHEMBL5058648, “Data for DCP probe SAFit2” (2022).
One block for each compound: values may come before it.

Columns and labels:
[1] = target: Alpha-1A adrenergic receptor (Homo sapiens) (UniProt P35348); conditions: Compound concentration 10.0 uM
[2] = target: D(1A) dopamine receptor (Homo sapiens) (UniProt P21728); conditions: Compound concentration 10.0 uM
[3] = target: T1, Sodium-dependent dopamine transporter (Homo sapiens, UniProt Q01959); conditions: Compound concentration 10.0 uM
T1 sequence (Q01959 whole entry): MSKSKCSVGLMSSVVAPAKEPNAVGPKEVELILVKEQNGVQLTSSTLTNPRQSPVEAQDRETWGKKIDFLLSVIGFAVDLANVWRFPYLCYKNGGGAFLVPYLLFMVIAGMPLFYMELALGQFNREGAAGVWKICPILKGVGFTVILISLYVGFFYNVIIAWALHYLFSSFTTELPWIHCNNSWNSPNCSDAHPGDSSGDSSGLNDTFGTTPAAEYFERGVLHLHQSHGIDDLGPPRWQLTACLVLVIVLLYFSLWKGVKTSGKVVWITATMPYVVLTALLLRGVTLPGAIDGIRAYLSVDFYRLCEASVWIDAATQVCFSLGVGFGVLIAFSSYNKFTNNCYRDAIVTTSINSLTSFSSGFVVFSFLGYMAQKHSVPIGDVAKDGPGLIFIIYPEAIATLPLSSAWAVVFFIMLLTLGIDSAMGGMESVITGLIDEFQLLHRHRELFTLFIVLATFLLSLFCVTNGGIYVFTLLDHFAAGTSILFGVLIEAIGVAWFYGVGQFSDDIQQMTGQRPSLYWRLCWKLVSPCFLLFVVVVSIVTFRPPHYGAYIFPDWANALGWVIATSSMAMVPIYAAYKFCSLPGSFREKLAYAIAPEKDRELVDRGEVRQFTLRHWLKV

Histamine H2 receptor [4] = target: T2, Histamine H2 receptor (Homo sapiens, UniProt P25021); conditions: Compound concentration 10.0 uM
T2 sequence (P25021 whole entry): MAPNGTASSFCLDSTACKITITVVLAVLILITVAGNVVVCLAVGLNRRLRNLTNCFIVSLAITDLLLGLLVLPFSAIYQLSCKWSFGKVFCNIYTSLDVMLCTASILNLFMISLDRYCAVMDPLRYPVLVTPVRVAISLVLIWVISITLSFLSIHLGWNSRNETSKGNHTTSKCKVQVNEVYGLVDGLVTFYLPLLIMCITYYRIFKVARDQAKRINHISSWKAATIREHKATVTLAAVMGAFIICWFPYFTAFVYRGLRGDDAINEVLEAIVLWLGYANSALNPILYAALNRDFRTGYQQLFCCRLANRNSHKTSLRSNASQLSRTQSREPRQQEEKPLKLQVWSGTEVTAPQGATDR

[5] = target: 5-hydroxytryptamine receptor 6 (Homo sapiens) (UniProt P50406); conditions: Compound concentration 10.0 uM
[6] = target: Muscarinic acetylcholine receptor M4 (Homo sapiens) (UniProt P08173); conditions: Compound concentration 10.0 uM
[7] = target: D(1B) dopamine receptor (Homo sapiens) (UniProt P21918); conditions: Compound concentration 10.0 uM
[8] = target: Peptidyl-prolyl cis-trans isomerase FKBP2 (Homo sapiens, UniProt P26885); assay: Competitive fluorescence polarization binding assay (FKBP2)
[9] = target: T3, Sigma intracellular receptor 2 (Homo sapiens, UniProt Q5BJF2); conditions: Compound concentration 10.0 uM
T3 sequence (Q5BJF2 whole entry): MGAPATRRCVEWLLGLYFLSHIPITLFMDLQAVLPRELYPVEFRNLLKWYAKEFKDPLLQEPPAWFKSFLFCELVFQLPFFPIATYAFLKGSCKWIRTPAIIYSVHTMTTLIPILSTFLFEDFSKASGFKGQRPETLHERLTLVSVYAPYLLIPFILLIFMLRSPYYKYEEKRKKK

[10] = target: Alpha-2B adrenergic receptor (Homo sapiens) (UniProt P18089); conditions: Compound concentration 10.0 uM
[11] = target: Sodium-dependent serotonin transporter (Homo sapiens) (UniProt P31645); conditions: Compound concentration 10.0 uM
[12] = target: T4, Sodium-dependent noradrenaline transporter (Homo sapiens, UniProt P23975); conditions: Compound concentration 10.0 uM
T4 sequence (P23975 whole entry): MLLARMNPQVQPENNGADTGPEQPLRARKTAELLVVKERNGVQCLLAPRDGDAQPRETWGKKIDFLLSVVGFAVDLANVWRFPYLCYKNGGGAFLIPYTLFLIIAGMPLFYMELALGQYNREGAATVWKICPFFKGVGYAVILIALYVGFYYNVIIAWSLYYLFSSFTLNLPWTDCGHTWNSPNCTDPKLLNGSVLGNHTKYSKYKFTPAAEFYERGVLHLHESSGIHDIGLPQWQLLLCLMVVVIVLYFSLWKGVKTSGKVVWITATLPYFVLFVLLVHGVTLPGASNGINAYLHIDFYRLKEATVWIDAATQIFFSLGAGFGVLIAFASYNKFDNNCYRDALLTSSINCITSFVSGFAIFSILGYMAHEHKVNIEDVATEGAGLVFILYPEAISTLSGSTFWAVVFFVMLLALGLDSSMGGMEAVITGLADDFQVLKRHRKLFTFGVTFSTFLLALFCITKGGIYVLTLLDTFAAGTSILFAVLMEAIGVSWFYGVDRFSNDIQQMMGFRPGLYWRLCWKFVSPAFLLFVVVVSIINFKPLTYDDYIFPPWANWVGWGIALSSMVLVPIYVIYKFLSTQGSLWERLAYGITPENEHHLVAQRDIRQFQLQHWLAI

[13] = target: Kappa-type opioid receptor (Homo sapiens) (UniProt P41145); conditions: Compound concentration 10.0 uM
[14] = target: Peptidyl-prolyl cis-trans isomerase FKBP3 (Homo sapiens, UniProt Q00688); assay: Competitive fluorescence polarization binding assay (FKBP3)
[15] = target: Muscarinic acetylcholine receptor M1 (Homo sapiens) (UniProt P11229); conditions: Compound concentration 10.0 uM
Chain of Muscarinic acetylcholine receptor M1 (Homo sapiens) (P11229 whole entry): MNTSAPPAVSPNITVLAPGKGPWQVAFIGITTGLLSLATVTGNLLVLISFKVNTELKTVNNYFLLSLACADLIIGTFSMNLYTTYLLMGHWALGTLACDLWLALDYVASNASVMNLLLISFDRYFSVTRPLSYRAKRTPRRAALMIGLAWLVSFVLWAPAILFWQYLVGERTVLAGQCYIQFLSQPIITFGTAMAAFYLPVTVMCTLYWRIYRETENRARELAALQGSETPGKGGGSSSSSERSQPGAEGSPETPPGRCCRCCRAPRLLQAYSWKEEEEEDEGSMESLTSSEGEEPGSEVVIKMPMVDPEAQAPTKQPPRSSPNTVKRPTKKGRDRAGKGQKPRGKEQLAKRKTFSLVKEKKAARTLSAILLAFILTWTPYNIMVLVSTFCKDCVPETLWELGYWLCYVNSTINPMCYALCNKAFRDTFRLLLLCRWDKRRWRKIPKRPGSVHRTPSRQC

[16] = target: Beta-2 adrenergic receptor (Homo sapiens) (UniProt P07550); conditions: Compound concentration 10.0 uM
[17] = target: Mu-type opioid receptor (Homo sapiens) (UniProt P35372); conditions: Compound concentration 10.0 uM
[18] = target: Histamine H3 receptor (Homo sapiens) (UniProt Q9Y5N1); conditions: Compound concentration 10.0 uM
[19] = target: T5, 5-hydroxytryptamine receptor 1D (Homo sapiens, UniProt P28221); conditions: Compound concentration 10.0 uM
T5 sequence (P28221 whole entry): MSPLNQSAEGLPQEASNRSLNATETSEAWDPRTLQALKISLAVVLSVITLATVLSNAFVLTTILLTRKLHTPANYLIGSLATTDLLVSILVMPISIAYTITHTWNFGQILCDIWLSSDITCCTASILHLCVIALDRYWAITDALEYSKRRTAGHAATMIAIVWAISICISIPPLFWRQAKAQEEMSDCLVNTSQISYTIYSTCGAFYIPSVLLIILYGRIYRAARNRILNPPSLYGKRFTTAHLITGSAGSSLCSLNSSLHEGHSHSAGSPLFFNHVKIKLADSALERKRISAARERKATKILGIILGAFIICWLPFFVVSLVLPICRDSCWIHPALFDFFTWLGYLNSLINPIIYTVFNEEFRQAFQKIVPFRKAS

Rattus norvegicus = organism: Rattus norvegicus; conditions: Compound concentration 10.0 uM
D(2) dopamine receptor [20] = target: T6, D(2) dopamine receptor (Homo sapiens, UniProt P14416); conditions: Compound concentration 10.0 uM
T6 sequence (P14416 whole entry): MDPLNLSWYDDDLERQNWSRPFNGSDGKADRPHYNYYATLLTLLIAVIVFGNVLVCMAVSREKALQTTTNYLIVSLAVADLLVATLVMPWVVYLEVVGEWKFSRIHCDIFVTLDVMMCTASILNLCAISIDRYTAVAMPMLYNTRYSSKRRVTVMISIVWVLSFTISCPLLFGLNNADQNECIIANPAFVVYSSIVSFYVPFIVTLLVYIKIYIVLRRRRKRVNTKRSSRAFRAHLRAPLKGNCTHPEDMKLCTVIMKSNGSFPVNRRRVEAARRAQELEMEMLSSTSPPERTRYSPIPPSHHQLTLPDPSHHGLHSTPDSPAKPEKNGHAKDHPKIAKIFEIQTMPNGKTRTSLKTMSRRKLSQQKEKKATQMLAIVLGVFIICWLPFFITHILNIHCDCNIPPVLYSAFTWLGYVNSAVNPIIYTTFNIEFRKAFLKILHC

[21] = target: 5-hydroxytryptamine receptor 2C (Homo sapiens) (UniProt P28335); conditions: Compound concentration 10.0 uM
[22] = target: Alpha-2A adrenergic receptor (Homo sapiens) (UniProt P08913); conditions: Compound concentration 10.0 uM
Chain of Alpha-2A adrenergic receptor (Homo sapiens) (P08913 whole entry): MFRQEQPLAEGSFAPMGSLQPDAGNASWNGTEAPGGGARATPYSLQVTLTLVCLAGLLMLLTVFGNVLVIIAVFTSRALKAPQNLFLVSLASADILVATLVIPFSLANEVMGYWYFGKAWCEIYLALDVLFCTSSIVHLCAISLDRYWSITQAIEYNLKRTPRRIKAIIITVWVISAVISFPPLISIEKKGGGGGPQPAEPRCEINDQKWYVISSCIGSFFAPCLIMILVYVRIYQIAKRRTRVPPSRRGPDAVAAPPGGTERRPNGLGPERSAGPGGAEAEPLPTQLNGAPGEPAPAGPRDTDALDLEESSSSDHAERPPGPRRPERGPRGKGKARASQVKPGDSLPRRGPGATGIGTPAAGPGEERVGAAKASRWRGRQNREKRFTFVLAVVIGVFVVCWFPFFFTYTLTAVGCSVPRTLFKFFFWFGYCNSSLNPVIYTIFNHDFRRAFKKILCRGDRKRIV

Histamine H4 receptor [23] = target: T7, Histamine H4 receptor (Homo sapiens, UniProt Q9H3N8); conditions: Compound concentration 10.0 uM
D(2) dopamine receptor [24] = target: T6, D(2) dopamine receptor; assay: GPCRScan assay: inhibition of D2; parameters: radioligand conc. used [nm] 0.4 – 1.0, parental cells stable fibroblast
[25] = target: 5-hydroxytryptamine receptor 2A (Homo sapiens) (UniProt P28223); conditions: Compound concentration 10.0 uM
[26] = target: Beta-1 adrenergic receptor (Homo sapiens) (UniProt P08588); conditions: Compound concentration 10.0 uM
[27] = target: Muscarinic acetylcholine receptor M5 (Homo sapiens) (UniProt P08912); conditions: Compound concentration 10.0 uM
[28] = target: Beta-3 adrenergic receptor (Homo sapiens) (UniProt P13945); conditions: Compound concentration 10.0 uM
[29] = target: Muscarinic acetylcholine receptor M3 (Homo sapiens) (UniProt P20309); conditions: Compound concentration 10.0 uM
[30] = target: 5-hydroxytryptamine receptor 5A (Homo sapiens) (UniProt P47898); conditions: Compound concentration 10.0 uM
Chain of 5-hydroxytryptamine receptor 5A (Homo sapiens) (P47898 whole entry): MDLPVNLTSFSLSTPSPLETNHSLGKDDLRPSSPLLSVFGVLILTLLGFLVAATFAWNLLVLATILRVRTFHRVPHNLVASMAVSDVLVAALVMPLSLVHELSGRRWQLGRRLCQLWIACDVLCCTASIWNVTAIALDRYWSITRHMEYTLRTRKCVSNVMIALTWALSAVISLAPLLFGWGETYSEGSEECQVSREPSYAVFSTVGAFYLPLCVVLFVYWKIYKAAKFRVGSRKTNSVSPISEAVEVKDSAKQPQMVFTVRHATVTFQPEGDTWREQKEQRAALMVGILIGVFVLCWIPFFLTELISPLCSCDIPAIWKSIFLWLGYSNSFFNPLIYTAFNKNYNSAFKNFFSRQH

[31] = target: T8, Sigma non-opioid intracellular receptor 1 (Homo sapiens, UniProt Q99720); conditions: Compound concentration 10.0 uM
T8 sequence (Q99720 whole entry): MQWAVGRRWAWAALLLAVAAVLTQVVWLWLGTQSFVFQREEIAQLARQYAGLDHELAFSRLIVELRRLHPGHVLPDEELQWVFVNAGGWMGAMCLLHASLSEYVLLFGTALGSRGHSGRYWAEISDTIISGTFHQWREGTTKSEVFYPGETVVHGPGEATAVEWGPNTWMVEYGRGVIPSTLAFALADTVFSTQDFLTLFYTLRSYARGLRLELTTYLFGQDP

[32] = target: 5-hydroxytryptamine receptor 3A (Homo sapiens) (UniProt P46098); conditions: Compound concentration 10.0 uM
[33] = target: Alpha-1B adrenergic receptor (Homo sapiens) (UniProt P35368); conditions: Compound concentration 10.0 uM
[34] = target: 5-hydroxytryptamine receptor 1A (Homo sapiens) (UniProt P08908); conditions: Compound concentration 10.0 uM
[35] = target: 5-hydroxytryptamine receptor 2C (Homo sapiens, UniProt P28335); assay: GPCRScan assay: inhibition of 5-HT2C; parameters: radioligand conc. used [nm] 1.0 – 2.5, parental cells HEK T
Histamine H4 receptor [36] = target: T7, Histamine H4 receptor; assay: GPCRScan assay: inhibition of H4; parameters: radioligand conc. used [nm] 1.0 – 5.0, parental cells HEK T
[37] = target: T9, GABA-A receptor; anion channel (Rattus norvegicus) (UniProt O09028+P15431+P18506+P18508+P19969+P20236+P23574+P23576+P28471+P28473+P30191+P62813+P63079+P63138+Q91ZM7+Q9ES14); conditions: Compound concentration 10.0 uM
[38] = target: Peptidyl-prolyl cis-trans isomerase FKBP4 (Homo sapiens, UniProt Q02790); assay: Competitive fluorescence polarization binding assay (FKBP4)
[39] = target: Delta-type opioid receptor (Homo sapiens) (UniProt P41143); conditions: Compound concentration 10.0 uM
Chain of Delta-type opioid receptor (Homo sapiens) (P41143 whole entry): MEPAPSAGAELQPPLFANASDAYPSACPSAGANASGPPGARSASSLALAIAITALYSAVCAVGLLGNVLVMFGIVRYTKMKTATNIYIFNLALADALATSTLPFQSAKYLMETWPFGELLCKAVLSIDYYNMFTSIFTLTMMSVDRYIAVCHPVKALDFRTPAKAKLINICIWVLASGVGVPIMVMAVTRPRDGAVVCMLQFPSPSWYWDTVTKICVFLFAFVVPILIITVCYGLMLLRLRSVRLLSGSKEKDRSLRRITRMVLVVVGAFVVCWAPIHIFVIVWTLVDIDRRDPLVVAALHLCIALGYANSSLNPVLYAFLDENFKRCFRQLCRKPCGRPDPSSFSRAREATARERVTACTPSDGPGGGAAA

[40] = target: 5-hydroxytryptamine receptor 2B (Homo sapiens) (UniProt P41595); conditions: Compound concentration 10.0 uM
[41] = target: D(3) dopamine receptor (Homo sapiens) (UniProt P35462); conditions: Compound concentration 10.0 uM
[42] = target: T3, Sigma intracellular receptor 2; assay: GPCRScan assay: inhibition of Sigma 2; parameters: radioligand conc. used [nm] 5.0, parental cells HEKT
[43] = target: Histamine H1 receptor (Homo sapiens) (UniProt P35367); conditions: Compound concentration 10.0 uM
[44] = target: D(4) dopamine receptor (Homo sapiens) (UniProt P21917); conditions: Compound concentration 10.0 uM
Chain of D(4) dopamine receptor (Homo sapiens) (P21917 whole entry): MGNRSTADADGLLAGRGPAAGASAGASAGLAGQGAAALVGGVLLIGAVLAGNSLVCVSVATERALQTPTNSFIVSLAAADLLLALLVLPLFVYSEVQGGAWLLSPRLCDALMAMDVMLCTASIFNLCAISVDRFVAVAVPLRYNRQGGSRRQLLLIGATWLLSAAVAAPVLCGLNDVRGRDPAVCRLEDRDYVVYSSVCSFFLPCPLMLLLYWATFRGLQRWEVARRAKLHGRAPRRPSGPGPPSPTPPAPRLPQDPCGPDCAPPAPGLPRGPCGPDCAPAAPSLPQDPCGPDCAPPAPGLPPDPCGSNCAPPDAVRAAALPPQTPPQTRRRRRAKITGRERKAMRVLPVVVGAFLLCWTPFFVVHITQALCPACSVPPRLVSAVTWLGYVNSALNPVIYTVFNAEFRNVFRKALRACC

[45] = target: 5-hydroxytryptamine receptor 1B (Homo sapiens) (UniProt P28222); conditions: Compound concentration 10.0 uM
[46] = target: Muscarinic acetylcholine receptor M2 (Homo sapiens) (UniProt P08172); conditions: Compound concentration 10.0 uM
[47] = target: Alpha-2C adrenergic receptor (Homo sapiens) (UniProt P18825); conditions: Compound concentration 10.0 uM
[48] = target: T9, GABA-A receptor; anion channel (Rattus norvegicus); conditions: Compound concentration 10.0 uM; remark: listed apart in the source
[49] = target: 5-hydroxytryptamine receptor 7 (Homo sapiens) (UniProt P34969); conditions: Compound concentration 10.0 uM
[50] = target: T8, Sigma non-opioid intracellular receptor 1; assay: GPCRScan assay: inhibition of Sigma 1; parameters: radioligand conc. used [nm] 4.0 – 5.0, parental cells HEKT
[51] = target: T5, 5-hydroxytryptamine receptor 1D; assay: GPCRScan assay: inhibition of 5-HT1D; parameters: radioligand conc. used [nm] 1.0 – 2.0, parental cells HEKT
[52] = target: T4, Sodium-dependent noradrenaline transporter; assay: GPCRScan assay: inhibition of NET; parameters: radioligand conc. used [nm] 1.3 – 5.0, parental cells stable HEK
[53] = target: T1, Sodium-dependent dopamine transporter; assay: GPCRScan assay: inhibition of DAT; parameters: radioligand conc. used [nm] 3.6 – 16.0, parental cells stable HEK
[54] = target: 5-hydroxytryptamine receptor 1E (Homo sapiens) (UniProt P28566); conditions: Compound concentration 10.0 uM
Histamine H2 receptor [55] = target: T2, Histamine H2 receptor; assay: GPCRScan assay: inhibition of H2; parameters: radioligand conc. used [nm] 0.02 – 0.05, parental cells Stable HEK

inhibition [1]: 6.7% | inhibition [2]: 24.3% | inhibition [3]: 41% | inhibition (Histamine H2 receptor [4]): 30.3% | inhibition [5]: 9.5% | inhibition [6]: 3.4% | inhibition [7]: 9.2% | Kd [8]: 1050 nM (not active) | inhibition [9]: 84.9% | inhibition [10]: 7.6% | inhibition [11]: 9.5% | inhibition [12]: 36.9% | inhibition [13]: 5.9% | Kd [14]: > 10000 nM (not active) | inhibition [15]: 7.5% | inhibition [16]: 14.5% | inhibition [17]: 20.9% | inhibition [18]: 12.9% | inhibition [19]: 15.5% | inhibition (Rattus norvegicus): 3.1% | inhibition (D(2) dopamine receptor [20]): 50% | inhibition [21]: 56.1% | inhibition [22]: 23.8% | inhibition (Histamine H4 receptor [23]): 71.8% | Ki (D(2) dopamine receptor [24]): > 10000 nM | inhibition [25]: 21.9% | inhibition [26]: -6.5% | inhibition [27]: 20.5% | inhibition [28]: 37.1% | inhibition [29]: 0.4% | inhibition [30]: 25.9% | inhibition [31]: 49.4% | inhibition [32]: 7.6% | inhibition [33]: -1.1% | inhibition [34]: -0.3% | Ki [35]: > 10000 nM | Ki (Histamine H4 receptor [36]): 3380 nM | inhibition [37]: -9.9% | Kd [38]: > 50000 nM (not active) | inhibition [39]: 13.4% | inhibition [40]: 8.5% | inhibition [41]: 39.7% | Ki [42]: 226 nM | inhibition [43]: 37.9% | inhibition [44]: 8.1% | inhibition [45]: 0.6% | inhibition [46]: 7% | inhibition [47]: 49.7% | inhibition [48]: 17.2% | inhibition [49]: 3%
Compound: COc1ccc(CC[C@@H](OC(=O)[C@@H]2CCCCN2C(=O)[C@H](c2cc(OC)c(OC)c(OC)c2)C2CCCCC2)c2cccc(OCCN3CCOCC3)c2)cc1OC

inhibition [2]: 19.1% | inhibition [3]: 68.4% | Ki [50]: 2850 nM | inhibition (Histamine H2 receptor [4]): 50.7% | inhibition [6]: 18% | inhibition [7]: 4.07% | inhibition [9]: 98.4% | inhibition [10]: 19.7% | inhibition [11]: -5.1% | inhibition [12]: 52.4% | inhibition [13]: 5.75% | Ki ([51]; read-out: Ki): 3130 nM | Ki ([51]; read-out: pKi (converted)): 3090 nM | Ki [52]: > 10000 nM | pKi [52]: < 5 | inhibition [15]: 4.82% | inhibition [17]: 4.34% | inhibition [18]: 10.2% | inhibition [19]: 57% | Ki ([53]; read-out: Ki): 2180 nM | Ki ([53]; read-out: pKi (converted)): 2190 nM | inhibition (D(2) dopamine receptor [20]): 14.7% | inhibition [22]: 26.6% | inhibition (Histamine H4 receptor [23]): 49.5% | inhibition [25]: 4.4% | inhibition [54]: 12.6% | inhibition [26]: -0.58% | inhibition [27]: -1.68% | inhibition [28]: 35.1% | inhibition [29]: -3.44% | inhibition [30]: 6.87% | inhibition [31]: 58.1% | inhibition [32]: 0.13% | inhibition [33]: -5.8% | inhibition [34]: 12.2% | inhibition [37]: 20.6% | inhibition [39]: 4.39% | inhibition [40]: 19.4% | inhibition [41]: 28.1% | Ki [42]: 409 nM | inhibition [43]: 14.2% | inhibition [44]: 9.71% | inhibition [45]: 30.2% | Ki (Histamine H2 receptor [55]; read-out: Ki): 2960 nM | Ki (Histamine H2 receptor [55]; read-out: pKi (converted)): 2690 nM | inhibition [47]: 25.2% | inhibition [49]: -3.87%
Compound: COc1ccc(CC[C@@H](OC(=O)[C@H]2CCCCN2C(=O)[C@@H](c2cc(OC)c(OC)c(OC)c2)C2CCCCC2)c2cccc(OCCN3CCOCC3)c2)cc1OC
